Results: patent US20230104311A1, “NOVEL 6-SUBSTITUTED 7-DEAZAPURINES AND CORRESPONDING NUCLEOSIDES AS MEDICAMENTS” (KATHOLIEKE UNIVERSITEIT LEUVEN, priority 2020, published 2023)
Values joined by “and” are separate entries in the source; they are usually repeats but may differ in a detail not shown here. Identical values can stand only once. “Also recorded” adds a separate entry of the source. Like-named read-outs stand apart in the source and are kept apart here.

Legend:
[1] = test system: human norovirus (HuNoV); experiment: Inhibition of in vitro replication of genogroup 1 NoV in HG23 NoV replicon cells (qRT-PCR of intracellular RNA); format: cell-based; settings: for inhibitory activity against human norovirus (in words): HuNoV assay
[2] = Cytotoxicity (CC50) determined in parallel in uninfected cells (β-actin toxicity); settings: human
[3] = test system: uninfected cells; experiment: as above; settings: HuNoV assay
[4] = test system: Influenza A virus strain California/07/2009; experiment: Inhibition of in vitro replication of Influenza A virus; format: cell-based; settings: for EC50: Influenza A virus strain California/07/2009
[5] = test system: MERS Coronavirus strain EMC; experiment: microbe, parasite or virus in culture; format: cell-based
[6] = in vitro; settings: human
[7] = test system: murine norovirus (MNV); settings: read-out: EC50 murine norovirus (MNV) polymerase; cited from earlier work
[8] = test system: HuNoV; settings: human B cell BJAB cell line; read-out: EC50 HuNoV replication; cited from earlier work
[9] = test system: HCV; settings: anti-HCV in vitro; cited from earlier work
[10] = test system: HCV; settings: read-out: EC50 HCV in cell cultures; cited from earlier work
[11] = test system: norovirus; settings: read-out: EC50 norovirus replication; cited from earlier work
[12] = test system: uninfected cells
[13] = test system: poliovirus (PV); settings: read-out: IC50 poliovirus (PV) replication; cited from earlier work
[14] = test system: dengue virus (DENV2); settings: read-out: IC50 dengue virus (DENV2) replication; cited from earlier work
[15] = Norovirus, HG23, HuNoV, HG23 NoV replicon cells, read-out: EC50 (effective concentration to inhibit the replication of the virus by 50%)
[16] = Norovirus, HuNoV, HG23 NoV replicon cells, read-out: EC90 (effective concentration to inhibit the replication of the virus by 90%)
[17] = Norovirus, HG23, read-out: EC50 (effective concentration to inhibit the replication of the virus by 50%), HuNoV, HG23 NoV replicon cells
[18] = HuNoV, HG23 NoV replicon cells, read-out: EC50 (effective concentration to inhibit the replication of the virus by 50%)
[19] = HuNoV, HG23 NoV replicon cells, read-out: EC90 (effective concentration to inhibit the replication of the virus by 90%)

## COc1ccc(-c2ncnc3c2ccn3[C@@H]2O[C@H](CO)[C@@H](O)[C@H]2O)cc1 [Compound 11n, 6-(4-Methoxylphenyl)-9-β-D-ribofuranosyl-7-desazapurine]
[1]; [15]
  EC50: 0.094 µM
[1]; [16]
  EC90: > 100 µM
[2]; uninfected cells
  CC50: > 100 µM

## CCCCCc1ncnc2c1ccn2[C@@H]1O[C@H](CO)[C@@H](O)[C@H]1O [Compound 11f, 6-Pentyl-9-β-D-ribofuranosyl-7-deazapurine]
[1]; [17]
  EC50: 0.084 µM
[1]; Norovirus, HG23, read-out: EC90 (effective concentration to inhibit the replication of the virus by 90%)
  EC90: > 100 µM
[2]; uninfected cells
  CC50: > 100 µM

## CN(C)c1ccc(-c2ncnc3c2ccn3[C@@H]2O[C@H](CO)[C@@H](O)[C@H]2O)cc1 [Compound 11p, 6-(4-(Dimethylamino)phenyl)-9-β-D-ribofuranosyl-7-deazapurine]
[1]; [15]
  EC50: 92.4 µM
[1]; [16]
  EC90: > 100 µM
[2]; uninfected cells
  CC50: > 100 µM

## Cc1ncnc2c1ccn2[C@@H]1O[C@H](CO)[C@@H](O)[C@H]1O [Compound 11b, 6-Methyl-9-β-D-ribofuranosyl-7-deazapurine]
[1]
  inhibitory activity against human norovirus (in words): good activity
[1]; [17]
  EC50: 0.012 µM
[1]; [16]
  EC90: 0.068 µM
[2]; uninfected cells
  CC50: 0.53 µM

## CC(C)c1ncnc2c1ccn2[C@@H]1O[C@H](CO)[C@@H](O)[C@H]1O [Compound 11c, 6-Isopropyl-9-β-D-ribofuranosyl-7-deazapurine]
[1]
  inhibitory activity against human norovirus (in words): potent activity
[1]; [17]
  EC50: 0.024 µM
[1]; [16]
  EC90: 2.69 µM
[2]; uninfected cells
  CC50: > 100 µM
[3]
  cytotoxicity (in words): did not display significant cytotoxicity; also recorded: without significant cytotoxicity

## CCc1ncnc2c1ccn2[C@@H]1O[C@H](CO)[C@@H](O)[C@H]1O [Compound 11d, 6-Ethyl-9-β-D-ribofuranosyl-7-deazapurine]
[1]; [17]
  EC50: 0.023 µM
[1]; [16]
  EC90: 0.495 µM
[4]
  inhibitory activity against Influenza A virus (in words): moderate inhibitory activity
  EC50: 0.42 µM
[5]
  inhibitory activity against MERS Coronavirus (in words): moderate inhibitory activity
[5]; Middle East respiratory syndrome-related coronavirus
  EC50: 9.2 µM
[6]
  CC50: > 100 µM
[2]
  CC50: 10.2 µM
[3]
  cytotoxicity (in words): did not display significant cytotoxicity

## CCCCCCc1ncnc2c1ccn2[C@@H]1O[C@H](CO)[C@@H](O)[C@H]1O [Compound 11g, 6-Hexyl-9-β-D-ribofuranosyl-7-deazapurine]
[1]; [15]
  EC50: 0.13 µM
[1]; [16]
  EC90: 57.6 µM
[2]; uninfected cells
  CC50: 62.3 µM

## C[C@@]1(O)[C@H](O)[C@@H](CO)O[C@H]1n1ccc(N)nc1=O [2’Cmethyl Cytidine, 2′-C-Methyl-cytidine, reference compound]
[1]; [15]
  EC50: 2.63 µM
[1]; [16]
  EC90: 13.8 µM
[7]
  EC50: 2 µM
[8]
  EC50: 0.3 µM
[2]; uninfected cells
  CC50: > 25 µM

## OC[C@H]1O[C@@H](n2ccc3c(C4CCCCC4)ncnc32)[C@H](O)[C@@H]1O [Compound 11l, 6-Cyclohexyl-9-β-D-ribofuranosyl-7-deazapurine]
[1]
  inhibitory activity against human norovirus (in words): potent activity
[1]; [18]
  EC50: 0.18 µM
[1]; [17]
  EC50: 0.18 µM
[1]; [16]
  EC90: 7.24 µM
[2]; uninfected cells
  CC50: 42.4 µM
[3]
  cytotoxicity (in words): did not display significant cytotoxicity; also recorded: without significant cytotoxicity

## CC(C)Cc1ncnc2c1ccn2[C@@H]1O[C@H](CO)[C@@H](O)[C@H]1O [Compound 11i, 6-Isobutyl-9-β-D-ribofuranosyl-7-deazapurine]
[1]; [15]
  EC50: 0.002 µM
[1]; [16]
  EC90: > 100 µM
[2]; uninfected cells
  CC50: > 100 µM

## C[C@@]1(O)[C@H](O)[C@@H](CO)O[C@H]1c1cc(C(N)=O)c2c(N)ncnn12 [7-carboamido analogue 2]
[9]
  improvement in potency relative to the parent compound 1: 40 fold

## OC[C@H]1O[C@@H](n2ccc3c(C4CCCC4)ncnc32)[C@H](O)[C@@H]1O [Compound 11k, 6-Cyclopentyl-9-β-D-ribofuranosyl-7-deazapurine]
[1]; [15]
  EC50: > 100 µM
[1]; [16]
  EC90: > 100 µM
[2]; uninfected cells
  CC50: > 100 µM

## C[C@@]1(O)[C@H](O)[C@@H](CO)O[C@H]1c1ccc2c(N)ncnn12 [2′-C-methyl-4-aza-7,9-dideazaadenosine]
[10]
  EC50: 1.98 µM

## NC(=O)c1ncn([C@@H]2O[C@H](CO)[C@@H](O)[C@H]2O)n1 [Ribavirin, reference compound]
[4]
  EC50: 3.6 µM
[11]
  EC50: 43 µM
[6]
  CC50: > 1000 µM

## Cc1ccc(-c2ncnc3c2ccn3[C@@H]2O[C@H](CO)[C@@H](O)[C@H]2O)cc1 [Compound 11a, 6-(4-Methylphenyl)-9-β-D-ribofuranosyl-7-deazapurine]
[1]; [16]
  EC90: > 100 µM
[2]; uninfected cells
  CC50: > 100 µM

## OC[C@H]1O[C@@H](n2ccc3c(-c4ccccc4)ncnc32)[C@H](O)[C@@H]1O [Compound 11o, 6-Phenyl-9-β-D-ribofuranosyl-7-deazapurine]
[1]; [15]
  EC50: 0.211 µM
[1]; [16]
  EC90: 61.9 µM
[2]; uninfected cells
  CC50: > 100 µM

## OC[C@H]1O[C@@H](n2ccc3c(C4CC4)ncnc32)[C@H](O)[C@@H]1O [Compound 11j, 6-Cycloproyl-9-β-D-ribofuranosyl-7-deazapurine]
[1]; [18]
  EC50: 0.205 µM
[1]; [19]
  EC90: > 100 µM
[12]
  CC50: > 100 µM

## CCCc1ncnc2c1ccn2[C@@H]1O[C@H](CO)[C@@H](O)[C@H]1O [Compound 11e, 6-Propyl-9-β-D-ribofuranosyl-7-deazapurine]
[1]
  inhibitory activity against human norovirus (in words): potent activity
[1]; [17]
  EC50: 0.016 µM
[1]; [16]
  EC90: 19 µM
[2]; uninfected cells
  CC50: > 100 µM
[3]
  cytotoxicity (in words): did not display significant cytotoxicity; also recorded: without significant cytotoxicity

## CC(C)c1ccc(-c2ncnc3c2ccn3[C@@H]2O[C@H](CO)[C@@H](O)[C@H]2O)cc1 [Compound 11m, 6-(4-isoproylphenyl)-9-β-D-ribofuranosyl-7-deazapurine]
[1]; [18]
  EC50: 0.002 µM and < 0.001 µM
[1]; [19]
  EC90: 55 µM
[12]
  CC50: > 100 µM

## CCc1ccc(-c2ncnc3c2ccn3[C@@H]2O[C@H](CO)[C@@H](O)[C@H]2O)cc1 [Compound 11q, 6-(4-Ethylphenyl)-9-β-D-ribofuranosyl-7-deazapurine]
[1]; [15]
  EC50: 57.8 µM
[1]; [16]
  EC90: > 100 µM
[2]; uninfected cells
  CC50: > 100 µM

## Cc1ncnc2c1ccn2[C@@H]1O[C@H](CO)[C@@H](O)[C@H]1O [Compound 3]
[13]
  IC50: 0.011 µM
[14]
  IC50: 0.039 µM
